In patent US20230322761A1, “DEGRADATION OF BRUTON'S TYROSINE KINASE (BTK) BY CONJUGATION OF BTK INHIBITORS WITH E3 LIGASE LIGAND AND METHODS OF USE” (BEIGENE, LTD., priority 2020, published 2023):

Target: T1, BTK (Homo sapiens, UniProt Q06187)
T1 construct: endogenous in cells; host or cells: TMD-8 cells
Test: BTK degradation in TMD-8 cells, HTRF assay after 6 h treatment
Format: cell-based
Conditions: IC50 (DC50) of BTK degradation
In short: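 Remaining BTK was quantified by HTRF in lysates of TMD-8 cells after 6 h exposure to an 8-point, 6-fold compound series (500× stocks in DMSO starting at 1 mM; 0.2% DMSO). Lysis 30 min, antibodies overnight at room temperature, ratio read at 665/620 nm; DC50 fitted with a four-parameter logistic equation.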

T1 sequence (Q06187 whole entry): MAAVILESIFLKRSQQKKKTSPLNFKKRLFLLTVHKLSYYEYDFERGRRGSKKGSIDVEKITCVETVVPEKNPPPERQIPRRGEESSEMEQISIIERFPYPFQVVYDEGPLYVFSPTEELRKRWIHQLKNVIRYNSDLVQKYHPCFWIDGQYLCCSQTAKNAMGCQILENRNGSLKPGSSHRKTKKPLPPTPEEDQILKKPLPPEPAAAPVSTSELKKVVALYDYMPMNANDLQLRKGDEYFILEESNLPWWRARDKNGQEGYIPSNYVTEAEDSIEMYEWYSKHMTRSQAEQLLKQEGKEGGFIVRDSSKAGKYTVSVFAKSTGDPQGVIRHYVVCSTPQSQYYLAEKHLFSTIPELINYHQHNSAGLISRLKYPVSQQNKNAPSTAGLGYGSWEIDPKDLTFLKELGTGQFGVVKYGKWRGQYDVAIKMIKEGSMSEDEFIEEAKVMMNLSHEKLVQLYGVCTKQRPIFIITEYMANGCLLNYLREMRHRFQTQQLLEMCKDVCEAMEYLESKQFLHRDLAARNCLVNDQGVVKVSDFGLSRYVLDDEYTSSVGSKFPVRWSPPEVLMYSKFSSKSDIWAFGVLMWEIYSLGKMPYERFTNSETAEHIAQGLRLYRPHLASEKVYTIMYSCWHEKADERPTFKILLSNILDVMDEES

Row | Compound | DC50
1 | Cc1cc(-c2n[nH]c3ncc(-c4ccc(C5(F)CCN(CC6CCN(c7ccc(N8CCC(=O)NC8=O)cc7)CC6)CC5)cn4)cc23)ccc1[C@@H](C)NC(=O)c1nc(C(C)(C)C)no1 [Example 205, (R)-3-(tert-butyl)-N-(1-(4-(5-(5-(1-((1-(4-(2,4-dioxotetrahydropyrimidin-1(2H)-yl)phenyl)piperidin-4-yl)methyl)-4-fluoropiperidin-4-yl)pyridin-2-yl)-1H-pyrazolo[3,4-b]pyridin-3-yl)-2-methylphenyl)ethyl)-1,2,4-oxadiazole-5-carboxamide] | 0.736 nM
2 | Cc1cc(-c2n[nH]c3ncc(-c4ccc(N5CCN(CCc6ccc7c(c6)C[C@]6(CC(=O)NC6=O)C7)CC5)cc4)cc23)ccc1[C@@H](C)NC(=O)c1nc(C(C)(C)C)no1 [Example 206, 3-(tert-butyl)-N—((R)-1-(4-(5-(4-(4-(2-((S)-2′,5′-dioxo-1,3-dihydrospiro[indene-2,3′-pyrrolidin]-5-yl)ethyl)piperazin-1-yl)phenyl)-1H-pyrazolo[3,4-b]pyridin-3-yl)-2-methylphenyl)ethyl)-1,2,4-oxadiazole-5-carboxamide] | > 2000 nM
3 | Cc1cc(-c2n[nH]c3ncc(-c4ccc(N5CCN(CCc6ccc7c(c6)C[C@@]6(CC(=O)NC6=O)C7)CC5)cc4)cc23)ccc1[C@@H](C)NC(=O)c1nc(C(C)(C)C)no1 [Example 207, 3-(tert-butyl)-N—((R)-1-(4-(5-(4-(4-(2-((R)-2′,5′-dioxo-1,3-dihydrospiro[indene-2,3′-pyrrolidin]-5-yl)ethyl)piperazin-1-yl)phenyl)-1H-pyrazolo[3,4-b]pyridin-3-yl)-2-methylphenyl)ethyl)-1,2,4-oxadiazole-5-carboxamide] | 54 nM
4 | Cc1cc(-c2n[nH]c3ncc(-c4ccc(N5CCN(C6CC(c7ccc([C@@H]8CCC(=O)NC8=O)cc7)C6)CC5)cc4)cc23)ccc1[C@@H](C)NC(=O)c1noc(C(C)(C)C)n1 (stereo partly drawn) [Example 209, 5-(tert-butyl)-N—((R)-1-(4-(5-(4-(4-((1R,3s)-3-(4-((S)-2,6-dioxopiperidin-3-yl)phenyl)cyclobutyl)piperazin-1-yl)phenyl)-1H-pyrazolo[3,4-b]pyridin-3-yl)-2-methylphenyl)ethyl)-1,2,4-oxadiazole-3-carboxamide] | 13.6 nM
5 | Cc1cc(-c2n[nH]c3ncc(-c4ccc(C5(C)CCN(CC6CCN(c7ccc(N8CCC(=O)NC8=O)cc7)CC6)CC5)cc4)cc23)ccc1[C@@H](C)NC(=O)c1noc(C(C)(C)C)n1 [Example 210, (R)-5-(tert-butyl)-N-(1-(4-(5-(4-(1-((1-(4-(2,4-dioxotetrahydropyrimidin-1(2H)-yl)phenyl)piperidin-4-yl)methyl)-4-methylpiperidin-4-yl)phenyl)-1H-pyrazolo[3,4-b]pyridin-3-yl)-2-methylphenyl)ethyl)-1,2,4-oxadiazole-3-carboxamide] | 5.98 nM
6 | Cc1cc(-c2n[nH]c3ncc(-c4ccc(N5CCN(C6CC(c7ccc(C8CCC(=O)NC8=O)cc7)C6)CC5)cc4)cc23)ccc1[C@@H](C)NC(=O)c1noc(C(C)(C)C)n1 (stereo partly drawn) [Example 214, 5-(tert-butyl)-N-((1R)-1-(4-(5-(4-(4-((1s,3s)-3-(4-(2,6-dioxopiperidin-3-yl)phenyl)cyclobutyl)piperazin-1-yl)phenyl)-1H-pyrazolo[3,4-b]pyridin-3-yl)-2-methylphenyl)ethyl)-1,2,4-oxadiazole-3-carboxamide] | 1.3 nM
7 | Cc1cc(-c2n[nH]c3ncc(-c4ccc(N5CCN(CCc6ccc(N7CC(=O)NC7=O)cc6)CC5)cc4)cc23)ccc1[C@@H](C)NC(=O)c1nc(C(C)(C)C)no1 [Example 217, (R)-3-(tert-butyl)-N-(1-(4-(5-(4-(4-(4-(2,4-dioxoimidazolidin-1-yl)phenethyl)piperazin-1-yl)phenyl)-1H-pyrazolo[3,4-b]pyridin-3-yl)-2-methylphenyl)ethyl)-1,2,4-oxadiazole-5-carboxamide] | 1960 nM
8 | Cc1cc(-c2n[nH]c3ncc(-c4ccc(N5CCN(CC6CCN(c7ccc(N8CC(=O)NC8=O)cc7)CC6)CC5)cc4)cc23)ccc1[C@@H](C)NC(=O)c1nc(C(C)(C)C)no1 [Example 218, (R)-3-(tert-butyl)-N-(1-(4-(5-(4-(4-((1-(4-(2,4-dioxoimidazolidin-1-yl)phenyl)piperidin-4-yl)methyl)piperazin-1-yl)phenyl)-1H-pyrazolo[3,4-b]pyridin-3-yl)-2-methylphenyl)ethyl)-1,2,4-oxadiazole-5-carboxamide] | 19 nM
9 | Cc1c(CNC(=O)c2nc(C(C)(C)C)no2)ccc(-c2n[nH]c3ncc(-c4ccc(C5CCN(CC6CCN(c7ccc(N8CCC(=O)NC8=O)cc7)CC6)CC5)cc4)cc23)c1F [Example 219, 3-(tert-butyl)-N-(4-(5-(4-(1-((1-(4-(2,4-dioxotetrahydropyrimidin-1(2H)-yl)phenyl)piperidin-4-yl)methyl)piperidin-4-yl)phenyl)-1H-pyrazolo[3,4-b]pyridin-3-yl)-3-fluoro-2-methylbenzyl)-1,2,4-oxadiazole-5-carboxamide] | 2.23 nM
10 | Cc1cc(-c2n[nH]c3ncc(-c4ccc(C5CCN(CC6CCN(c7ccc(N8CCC(=O)NC8=O)cc7)CC6)CC5)cc4)cc23)c(F)cc1CNC(=O)c1nc(C(C)(C)C)no1 [Example 220, 3-(tert-butyl)-N-(4-(5-(4-(1-((1-(4-(2,4-dioxotetrahydropyrimidin-1(2H)-yl)phenyl)piperidin-4-yl)methyl)piperidin-4-yl)phenyl)-1H-pyrazolo[3,4-b]pyridin-3-yl)-5-fluoro-2-methylbenzyl)-1,2,4-oxadiazole-5-carboxamide] | 3.85 nM
11 | Cc1c(CNC(=O)c2noc(C(C)(C)C)n2)ccc(-c2n[nH]c3ncc(-c4ccc(C5CCN(CC6CCN(c7ccc(N8CCC(=O)NC8=O)cc7)CC6)CC5)cc4)cc23)c1F [Example 221, 5-(tert-butyl)-N-(4-(5-(4-(1-((1-(4-(2,4-dioxotetrahydropyrimidin-1(2H)-yl)phenyl)piperidin-4-yl)methyl)piperidin-4-yl)phenyl)-1H-pyrazolo[3,4-b]pyridin-3-yl)-3-fluoro-2-methylbenzyl)-1,2,4-oxadiazole-3-carboxamide] | 1.12 nM

More lines, in order of falling DC50, values ahead:

Row | DC50 | Compound
12 | 13.5 nM | Cc1cc(-c2n[nH]c3ncc(-c4ccc(C5(C)CCN(C6CC(c7ccc(C8CCC(=O)NC8=O)cc7)C6)CC5)cc4)cc23)ccc1[C@@H](C)NC(=O)c1noc(C(C)(C)C)n1 (stereo partly drawn) [Example 211, 5-(tert-butyl)-N-((1R)-1-(4-(5-(4-(1-(3-(4-(2,6-dioxopiperidin-3-yl)phenyl)cyclobutyl)-4-methylpiperidin-4-yl)phenyl)-1H-pyrazolo[3,4-b]pyridin-3-yl)-2-methylphenyl)ethyl)-1,2,4-oxadiazole-3-carboxamide]
13 | 11.8 nM | Cc1cc(-c2n[nH]c3ncc(-c4ccc(N5CCN(Cc6ccc(C7CCC(=O)NC7=O)c(F)c6)CC5)cc4)cc23)ccc1[C@@H](C)NC(=O)c1nc(C(C)(C)C)no1 (stereo partly drawn) [Example 215, 3-(tert-butyl)-N-((1R)-1-(4-(5-(4-(4-(4-(2,6-dioxopiperidin-3-yl)-3-fluorobenzyl)piperazin-1-yl)phenyl)-1H-pyrazolo[3,4-b]pyridin-3-yl)-2-methylphenyl)ethyl)-1,2,4-oxadiazole-5-carboxamide]
14 | 10.5 nM | Cc1cc(-c2n[nH]c3ncc(-c4ccc(N5CCN(C6CCC(c7ccc(C8CCC(=O)NC8=O)c(F)c7)C6)CC5)cc4)cc23)ccc1[C@@H](C)NC(=O)c1nc(C(C)(C)C)no1 (stereo partly drawn) [Example 216, 3-(tert-butyl)-N-((1R)-1-(4-(5-(4-(4-(3-(4-(2,6-dioxopiperidin-3-yl)-3-fluorophenyl)cyclopentyl)piperazin-1-yl)phenyl)-1H-pyrazolo[3,4-b]pyridin-3-yl)-2-methylphenyl)ethyl)-1,2,4-oxadiazole-5-carboxamide]
15 | 5.04 nM | Cc1cc(-c2n[nH]c3ncc(-c4ccc(N5CCN(CC6CCN(c7ccc(N8CCC(=O)NC8=O)cc7)CC6)CC5)cc4)cc23)ccc1[C@@H](C)NC(=O)c1nc(C2(C)CC2)no1 [Example 213, (R)—N-(1-(4-(5-(4-(4-((1-(4-(2,4-dioxotetrahydropyrimidin-1(2H)-yl)phenyl)piperidin-4-yl)methyl)piperazin-1-yl)phenyl)-1H-pyrazolo[3,4-b]pyridin-3-yl)-2-methylphenyl)ethyl)-3-(1-methylcyclopropyl)-1,2,4-oxadiazole-5-carboxamide]
16 | 2.08 nM | Cc1cc(-c2n[nH]c3ncc(-c4ccc(N5CCN(C6CC(c7ccc([C@@H]8CCC(=O)NC8=O)cc7)C6)CC5)cc4)cc23)ccc1[C@@H](C)NC(=O)c1noc(C(C)(C)C)n1 (stereo partly drawn) [Example 208, 5-(tert-butyl)-N—((R)-1-(4-(5-(4-(4-((1S,3s)-3-(4-((R)-2,6-dioxopiperidin-3-yl)phenyl)cyclobutyl)piperazin-1-yl)phenyl)-1H-pyrazolo[3,4-b]pyridin-3-yl)-2-methylphenyl)ethyl)-1,2,4-oxadiazole-3-carboxamide]
17 | 2.02 nM | Cc1cc(-c2n[nH]c3ncc(-c4ccc(C5(O)CCN(CC6CCN(c7ccc(N8CCC(=O)NC8=O)cc7)CC6)CC5)cn4)cc23)ccc1[C@@H](C)NC(=O)c1nc(C(C)(C)C)no1 [Example 204, (R)-3-(tert-butyl)-N-(1-(4-(5-(5-(1-((1-(4-(2,4-dioxotetrahydropyrimidin-1(2H)-yl)phenyl)piperidin-4-yl)methyl)-4-hydroxypiperidin-4-yl)pyridin-2-yl)-1H-pyrazolo[3,4-b]pyridin-3-yl)-2-methylphenyl)ethyl)-1,2,4-oxadiazole-5-carboxamide]
18 | 1.95 nM | Cc1cc(-c2n[nH]c3ncc(-c4ccc(N5CC6(CN(CC7CCN(c8ccc(N9CCC(=O)NC9=O)cc8)CC7)C6)C5)cc4)cc23)ccc1[C@@H](C)NC(=O)c1nc(C(C)(C)C)no1 [Example 212, (R)-3-(tert-butyl)-N-(1-(4-(5-(4-(6-((1-(4-(2,4-dioxotetrahydropyrimidin-1(2H)-yl)phenyl)piperidin-4-yl)methyl)-2,6-diazaspiro[3.3]heptan-2-yl)phenyl)-1H-pyrazolo[3,4-b]pyridin-3-yl)-2-methylphenyl)ethyl)-1,2,4-oxadiazole-5-carboxamide]
